The values below come from article PMC12469314, “Computational and Experimental Insights into Tyrosinase and Antioxidant Activities of Resveratrol and Its Derivatives: Molecular Docking, Molecular Dynamics Simulation, DFT Calculation, and In Vitro Evaluation” (International Journal of Molecular Sciences, 2025).

In one assay the target is T1, mushroom tyrosinase (Agaricus bisporus, UniProt C7FF04).
T1 construct: purchased Sigma-Aldrich
The assay can be described thus: Anti-mushroom tyrosinase activity (DOPA-chrome method). The format is biochemical. On the procedure:
The inhibitory activity of the samples against mushroom tyrosinase was assessed using the DOPA-chrome method with some modifications. […] The assay was performed in a 96-well plate, in which the buffer was added to all wells, followed by 10% DMSO (50 μL) in the control and blank control wells. […] Next, 50 μL of tyrosinase solution was added to all wells except for the blank control and blank sample, followed by incubation at room temperature for 10 min. Subsequently, 50 μL of L-Dopa solution was added to all wells and incubated for 10 min at room temperature. Finally, the absorbance was measured at 492 nm using a UV spectrophotometer. […] All experiments were performed in triplicate.

Assay [1] can be described thus: DPPH radical scavenging activity. Conditions: 30 min, 517 nm, mean ± SD. On the procedure: The DPPH radical scavenging activity was determined according to the method in [45] with slight modifications. A 20 µL sample was added to a 96-well plate, followed by 0.1 mM DPPH dissolved in absolute ethanol. The mixtures were incubated in the dark at room temperature for 30 min, and their absorbance was measured at 517 nm with 3 replications using a UV spectrophotometer. The radical scavenging activity was calculated as follows:%radical scavenging = [(Acontrol − Asample)/Acontrol] × 100 where Acontrol = absorbance of the control, which contains an equal volume of DPPH and absolute ethanol, and Asample = absorbance of the sample or ascorbic acid standard, which contains an equal volume of DPPH and the sample solution. The percentage inhibition of the test solutions was calculated and plotted against their concentrations, along with the L-ascorbic acid standard, to generate a linear equation. The concentration required for IC50 was determined via interpolation from the linear equation.
A general note: The DPPH test is a chemical assay of radical scavenging.

Assay [2] in a line: Ferric reducing antioxidant power (FRAP). Conditions: 595 nm, FeSO4 calibration, mean ± SD. On the procedure:
A FRAP assay was performed based on the method in [46] with slight modifications. The FRAP solution reagent was prepared by combining 0.3 M acetate buffer, 10 mM TPTZ solution in 40 mM HCl, and 20 mM ferric chloride (FeCl3) solution in a 10:1:1 ratio. Next, 20 µL of the sample was added to 280 µL of the FRAP reagent, and the mixture was thoroughly mixed. Absorbance was then measured at 595 nm using a UV spectrophotometer. A calibration curve was constructed with ferrous sulfate (FeSO4), and the results were expressed as the equivalent of FeSO4/g.

Assay [3] can be described thus: ABTS radical scavenging activity. Conditions: 7 min at 37 °C, 734 nm, mean ± SD. On the procedure: ABTS radical scavenging activity was measured using the method described by Thaipong et al. (2006), with minor modifications. The ABTS solution was prepared by dissolving 7 mM ABTS and mixing it with potassium persulfate in a 2:1 ratio. The mixture was allowed to react in the dark for 12–16 h. Before use, the ABTS radical cation was diluted with ultrapure water to achieve an initial absorbance of around 0.70 ± 0.02 at 734 nm, as measured using a UV spectrophotometer. Sample solutions at various concentrations were then prepared by mixing 50 μL of each sample with 100 μL of the ABTS solution. The mixture was incubated in the dark for 7 min at 37 °C. After incubation, absorbance was measured at 734 nm. All tests were performed in triplicate, and the percentage of radical scavenging activity was calculated.

T1 sequence (C7FF04 1-392): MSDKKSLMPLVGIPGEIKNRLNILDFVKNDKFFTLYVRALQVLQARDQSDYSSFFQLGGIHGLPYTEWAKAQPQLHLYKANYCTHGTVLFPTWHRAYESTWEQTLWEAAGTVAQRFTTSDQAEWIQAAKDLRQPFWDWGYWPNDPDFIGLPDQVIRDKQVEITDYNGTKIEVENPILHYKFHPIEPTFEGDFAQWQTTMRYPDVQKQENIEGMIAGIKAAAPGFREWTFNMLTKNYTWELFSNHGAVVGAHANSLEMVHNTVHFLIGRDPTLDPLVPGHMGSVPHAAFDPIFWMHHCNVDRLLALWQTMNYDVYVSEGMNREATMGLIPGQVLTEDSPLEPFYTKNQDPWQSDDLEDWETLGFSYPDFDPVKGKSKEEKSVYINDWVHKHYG

As a reminder, the IC50 is the concentration that inhibits the measured activity by half. Low values mean higher potency, high ones lower potency. Take `CC(=O)Oc1ccc(/C=C/c2cc(OC(C)=O)cc(OC(C)=O)c2)cc1` [Are, Acetyl-resveratrol]: the IC50 at mushroom tyrosinase was 396 ± 5.74 µM; in assay [1] it was more than 1.5 mM. Also, the FRAP reducing power result in assay [2] is on record as “very low reducing power”.
Consider `COc1ccc(/C=C\c2cc(OC)cc(OC)c2)cc1` [Cre, Cis-trismethoxy resveratrol], for which the IC50 at mushroom tyrosinase is 532 ± 3.59 µM; in assay [1] it was more than 1.5 mM. Moreover, the FRAP reducing power entry in assay [2] is reported as “very low reducing power”.
For `Oc1ccc(CCc2cc(O)cc(O)c2)cc1` [Dre, Dihydroresveratrol], in that order: 335 ± 7.98 µM, more than 1.5 mM and “very low reducing power”.
For `O=C1O[C@H]([C@@H](O)CO)C(O)=C1O` [L-ascorbic acid, reference compound], the IC50 in assay [3] came to 52.41 ± 0.06 µM.
On to `Oc1cc(O)cc(/C=C/c2ccc(O)cc2O)c1` [Ore, Oxyresveratrol], for which the IC50 came out at 4.02 ± 0.46 µM against mushroom tyrosinase, 0.0381 ± 0.00112 mM in assay [1] and 26.2 ± 0.57 µM in assay [3]. Besides, the FRAP reducing power in assay [2] is reported as 664.99 ± 42.62 μmol Fe(II)/g.
Turning to `Oc1ccc(/C=C/c2cc(O)cc(O)c2)cc1` [Re, 3,4′,5-trihydroxy-trans-stilbene], the half-inhibitory concentration (IC50) against mushroom tyrosinase came to 517 ± 7.4 µM.
